Earlier results as cited in paper PMC3635145 (Journal of medicinal chemistry, 2013).

Biological target: T1, TbrPDEB1 (Trypanosoma brucei, UniProt Q8WQX9)
T1 sequence (Q8WQX9 1-930): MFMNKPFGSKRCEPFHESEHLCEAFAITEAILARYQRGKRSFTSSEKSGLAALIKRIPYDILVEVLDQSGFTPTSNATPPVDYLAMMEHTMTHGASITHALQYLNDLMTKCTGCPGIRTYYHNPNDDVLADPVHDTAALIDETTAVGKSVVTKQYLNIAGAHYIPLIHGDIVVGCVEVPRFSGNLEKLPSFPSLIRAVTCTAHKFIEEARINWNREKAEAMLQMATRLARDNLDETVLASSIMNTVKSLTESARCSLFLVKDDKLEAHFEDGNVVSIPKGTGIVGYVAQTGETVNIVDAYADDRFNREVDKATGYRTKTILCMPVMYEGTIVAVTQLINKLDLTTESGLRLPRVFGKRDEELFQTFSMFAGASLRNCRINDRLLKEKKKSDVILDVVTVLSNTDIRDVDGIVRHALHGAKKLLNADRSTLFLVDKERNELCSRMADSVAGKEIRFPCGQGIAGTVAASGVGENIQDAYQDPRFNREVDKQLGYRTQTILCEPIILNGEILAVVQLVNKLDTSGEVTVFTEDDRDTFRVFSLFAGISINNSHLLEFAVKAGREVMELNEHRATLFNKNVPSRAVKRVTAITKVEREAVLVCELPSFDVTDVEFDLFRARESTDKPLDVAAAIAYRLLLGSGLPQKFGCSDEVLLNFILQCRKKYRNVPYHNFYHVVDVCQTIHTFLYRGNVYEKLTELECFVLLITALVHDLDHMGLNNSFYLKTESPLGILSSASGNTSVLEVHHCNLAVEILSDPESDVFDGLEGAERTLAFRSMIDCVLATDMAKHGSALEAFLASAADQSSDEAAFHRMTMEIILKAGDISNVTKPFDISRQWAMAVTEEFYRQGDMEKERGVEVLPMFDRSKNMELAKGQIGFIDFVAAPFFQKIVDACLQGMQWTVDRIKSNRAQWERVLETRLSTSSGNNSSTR

## COc1ccc(C(=O)CC(C)C)cc1OCCCCO [compound 5, 1-(3-(4-hydroxybutoxy)-4-methoxyphenyl)-3-methylbutan-1-one]
  TbrPDEB1 inhibition (in words): appears to inhibit TbrPDEB1 to some extent
